Patent US12365696B2, “Small-molecule focal adhesion kinase (FAK) inhibitors” (DANA-FARBER CANCER INSTITUTE, INC., priority 2019, dated 2025)

Key:
Assay in all cases: KINOMEscan
Type in all cases: binding
[1] = target: ABL1(F317L)-nonphosphorylated (Homo sapiens (Human), UniProt P00519, F317L); conditions: 10000 nM, read-out: Percent Control
[2] = target: BRSK1 (Homo sapiens (Human), UniProt Q8TDC3); conditions: BRSK1, 10000 nM; read-out: Percent Control
[3] = target: CDK4 (Homo sapiens (Human), UniProt P11802); conditions: CDK4, 10000 nM; read-out: Percent Control
[4] = target: CSNK1D (Homo sapiens (Human), UniProt P48730); conditions: 10000 nM, read-out: Percent Control
Sequence of CSNK1D (P48730 whole entry): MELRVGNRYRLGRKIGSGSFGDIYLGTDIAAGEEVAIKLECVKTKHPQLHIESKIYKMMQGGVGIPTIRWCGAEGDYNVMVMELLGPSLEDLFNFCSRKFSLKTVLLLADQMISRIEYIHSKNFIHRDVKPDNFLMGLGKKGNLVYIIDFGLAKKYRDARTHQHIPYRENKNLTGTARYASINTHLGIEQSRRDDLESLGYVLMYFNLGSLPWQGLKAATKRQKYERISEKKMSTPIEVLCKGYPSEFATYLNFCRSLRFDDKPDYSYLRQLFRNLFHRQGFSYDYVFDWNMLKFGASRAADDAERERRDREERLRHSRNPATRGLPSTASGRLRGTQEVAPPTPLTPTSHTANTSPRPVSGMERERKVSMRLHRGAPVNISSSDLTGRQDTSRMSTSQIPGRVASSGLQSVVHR

[5] = target: DAPK3 (Homo sapiens (Human), UniProt O43293); conditions: DAPK3, 10000 nM; read-out: Percent Control
[6] = target: DDR1 (Homo sapiens (Human), UniProt Q08345); conditions: DDR1, 10000 nM; read-out: Percent Control
[7] = target: DDR2 (Homo sapiens (Human), UniProt Q16832); conditions: DDR2, 10000 nM; read-out: Percent Control
Sequence of DDR2 (Q16832 22-855): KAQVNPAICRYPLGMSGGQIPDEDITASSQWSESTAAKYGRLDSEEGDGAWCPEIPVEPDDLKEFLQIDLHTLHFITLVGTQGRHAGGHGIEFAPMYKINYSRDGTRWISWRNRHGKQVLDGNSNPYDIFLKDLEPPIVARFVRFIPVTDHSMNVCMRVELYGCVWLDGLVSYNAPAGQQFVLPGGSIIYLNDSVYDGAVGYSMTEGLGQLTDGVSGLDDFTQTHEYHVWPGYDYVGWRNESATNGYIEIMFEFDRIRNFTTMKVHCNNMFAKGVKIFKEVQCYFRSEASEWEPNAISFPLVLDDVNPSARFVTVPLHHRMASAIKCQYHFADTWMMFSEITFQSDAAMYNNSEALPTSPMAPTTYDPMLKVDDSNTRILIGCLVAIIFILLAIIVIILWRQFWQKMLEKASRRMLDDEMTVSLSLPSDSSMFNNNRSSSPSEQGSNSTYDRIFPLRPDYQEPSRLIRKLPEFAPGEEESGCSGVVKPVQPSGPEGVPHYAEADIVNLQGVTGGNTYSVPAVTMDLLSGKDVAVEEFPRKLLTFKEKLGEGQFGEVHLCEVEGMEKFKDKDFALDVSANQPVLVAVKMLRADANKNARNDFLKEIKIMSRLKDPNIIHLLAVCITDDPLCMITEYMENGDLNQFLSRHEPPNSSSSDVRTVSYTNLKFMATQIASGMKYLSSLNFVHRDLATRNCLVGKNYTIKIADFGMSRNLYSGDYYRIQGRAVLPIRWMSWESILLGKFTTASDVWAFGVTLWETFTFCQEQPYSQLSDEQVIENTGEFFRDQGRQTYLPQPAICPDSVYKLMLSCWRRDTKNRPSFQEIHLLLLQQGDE

[8] = target: EGFR(L858R) (Homo sapiens (Human), UniProt P00533, L858R); conditions: 10000 nM, read-out: Percent Control
[9] = target: EGFR(L858R, T790M) (Homo sapiens (Human), UniProt P00533, L858R/T790M); conditions: 10000 nM, read-out: Percent Control
[10] = target: EPHB4 (Homo sapiens (Human), UniProt P54760); conditions: EPHB4, 10000 nM; read-out: Percent Control
[11] = target: ERK4 (Homo sapiens (Human), UniProt P31152); conditions: ERK4, 10000 nM; read-out: Percent Control
[12] = target: FLT1 (Homo sapiens (Human), UniProt P17948); conditions: FLT1, 10000 nM; read-out: Percent Control
[13] = target: FLT3-autoinhibited (Homo sapiens (Human), UniProt P36888); conditions: 10000 nM, read-out: Percent Control
[14] = target: GSK3A (Homo sapiens (Human), UniProt P49840); conditions: 10000 nM, read-out: Percent Control
[15] = target: HCK (Homo sapiens (Human), UniProt P08631); conditions: 10000 nM, read-out: Percent Control
[16] = target: MAP3K3 (Homo sapiens (Human), UniProt Q99759); conditions: MAP3K3, 10000 nM; read-out: Percent Control
[17] = target: MAST1 (Homo sapiens (Human), UniProt Q9Y2H9); conditions: MAST1, 10000 nM; read-out: Percent Control
Sequence of MAST1 (Q9Y2H9 whole entry): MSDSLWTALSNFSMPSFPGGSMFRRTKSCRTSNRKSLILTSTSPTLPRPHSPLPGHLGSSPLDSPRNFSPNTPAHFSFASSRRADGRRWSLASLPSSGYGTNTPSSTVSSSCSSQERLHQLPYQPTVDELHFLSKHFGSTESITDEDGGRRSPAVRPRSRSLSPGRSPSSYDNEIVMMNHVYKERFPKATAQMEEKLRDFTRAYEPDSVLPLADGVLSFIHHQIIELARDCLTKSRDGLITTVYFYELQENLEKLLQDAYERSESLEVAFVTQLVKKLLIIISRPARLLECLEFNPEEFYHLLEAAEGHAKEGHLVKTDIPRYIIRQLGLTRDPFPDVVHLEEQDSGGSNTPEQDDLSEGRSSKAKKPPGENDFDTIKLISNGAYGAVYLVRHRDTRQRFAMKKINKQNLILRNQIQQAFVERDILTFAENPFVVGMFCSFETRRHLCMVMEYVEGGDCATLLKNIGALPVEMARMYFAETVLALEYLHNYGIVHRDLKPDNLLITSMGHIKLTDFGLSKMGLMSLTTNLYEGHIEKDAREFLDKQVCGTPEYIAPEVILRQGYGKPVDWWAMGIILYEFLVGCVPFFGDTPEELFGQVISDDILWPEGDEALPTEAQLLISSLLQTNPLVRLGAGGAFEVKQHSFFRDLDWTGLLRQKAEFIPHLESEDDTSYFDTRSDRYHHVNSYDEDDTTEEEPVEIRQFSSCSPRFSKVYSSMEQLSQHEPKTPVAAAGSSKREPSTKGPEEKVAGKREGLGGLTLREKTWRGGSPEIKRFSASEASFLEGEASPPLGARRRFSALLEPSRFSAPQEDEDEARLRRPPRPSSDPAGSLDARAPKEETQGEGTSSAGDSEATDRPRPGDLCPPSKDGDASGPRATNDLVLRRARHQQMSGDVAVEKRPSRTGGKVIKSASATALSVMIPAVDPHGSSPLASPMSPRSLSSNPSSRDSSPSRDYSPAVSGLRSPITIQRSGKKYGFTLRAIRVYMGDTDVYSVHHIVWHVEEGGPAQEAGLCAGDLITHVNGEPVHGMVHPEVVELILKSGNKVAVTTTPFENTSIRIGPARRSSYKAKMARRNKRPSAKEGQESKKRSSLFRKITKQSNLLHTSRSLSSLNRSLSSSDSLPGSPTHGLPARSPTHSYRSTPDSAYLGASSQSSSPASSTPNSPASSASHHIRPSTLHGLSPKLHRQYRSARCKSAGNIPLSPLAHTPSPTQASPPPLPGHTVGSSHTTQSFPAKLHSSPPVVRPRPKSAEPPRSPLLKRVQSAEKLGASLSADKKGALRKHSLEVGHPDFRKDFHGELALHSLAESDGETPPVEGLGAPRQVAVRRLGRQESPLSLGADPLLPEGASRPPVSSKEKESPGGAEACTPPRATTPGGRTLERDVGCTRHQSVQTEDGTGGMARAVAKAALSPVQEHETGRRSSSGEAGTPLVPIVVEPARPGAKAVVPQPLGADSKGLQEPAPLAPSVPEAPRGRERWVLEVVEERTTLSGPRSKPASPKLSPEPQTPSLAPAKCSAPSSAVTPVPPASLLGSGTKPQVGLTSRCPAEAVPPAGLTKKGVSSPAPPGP

[18] = target: MET(Y1235D) (Homo sapiens (Human), UniProt P08581, Y1235D); conditions: 10000 nM, read-out: Percent Control
[19] = target: MINK (Homo sapiens (Human), UniProt Q8N4C8); conditions: 10000 nM, read-out: Percent Control
[20] = target: MYO3A (Homo sapiens (Human), UniProt Q8NEV4); conditions: 10000 nM, read-out: Percent Control
[21] = target: NDR2 (Homo sapiens (Human), UniProt Q9Y2H1); conditions: NDR2, 10000 nM; read-out: Percent Control
[22] = target: NEK5 (Homo sapiens (Human), UniProt Q6P3R8); conditions: NEK5, 10000 nM; read-out: Percent Control
Sequence of NEK5 (Q6P3R8 whole entry): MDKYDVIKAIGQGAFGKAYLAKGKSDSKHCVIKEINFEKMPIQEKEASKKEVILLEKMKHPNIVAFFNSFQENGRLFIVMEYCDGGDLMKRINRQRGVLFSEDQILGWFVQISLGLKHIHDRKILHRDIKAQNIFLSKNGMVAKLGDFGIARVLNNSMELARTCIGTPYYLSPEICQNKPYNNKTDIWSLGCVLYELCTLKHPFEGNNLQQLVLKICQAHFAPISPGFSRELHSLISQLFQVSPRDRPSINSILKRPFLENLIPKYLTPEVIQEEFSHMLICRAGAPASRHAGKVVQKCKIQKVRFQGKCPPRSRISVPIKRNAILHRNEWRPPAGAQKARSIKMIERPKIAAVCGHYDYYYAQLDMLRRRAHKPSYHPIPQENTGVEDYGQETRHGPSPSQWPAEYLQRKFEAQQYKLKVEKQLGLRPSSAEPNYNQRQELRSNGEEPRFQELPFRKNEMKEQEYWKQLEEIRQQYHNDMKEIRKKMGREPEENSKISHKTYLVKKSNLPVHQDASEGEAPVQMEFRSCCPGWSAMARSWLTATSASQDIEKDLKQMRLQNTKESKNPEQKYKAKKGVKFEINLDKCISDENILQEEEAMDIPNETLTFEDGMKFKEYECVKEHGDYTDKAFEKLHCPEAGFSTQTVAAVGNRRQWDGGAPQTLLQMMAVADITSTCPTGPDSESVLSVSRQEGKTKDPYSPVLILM

[23] = target: NEK6 (Homo sapiens (Human), UniProt Q9HC98); conditions: NEK6, 10000 nM; read-out: Percent Control
[24] = target: PAK2 (Homo sapiens (Human), UniProt Q13177); conditions: PAK2, 10000 nM; read-out: Percent Control
[25] = target: PKAC-alpha (Homo sapiens (Human), UniProt P17612); conditions: 10000 nM, read-out: Percent Control
[26] = target: PRKD3 (Homo sapiens (Human), UniProt O94806); conditions: PRKD3, 10000 nM; read-out: Percent Control
[27] = target: ROCK1 (Homo sapiens (Human), UniProt Q13464); conditions: ROCK1, 10000 nM; read-out: Percent Control
[28] = target: RPS6KA4(Kin.Dom.1-N-terminal) (Homo sapiens (Human), UniProt O75676); conditions: 10000 nM, read-out: Percent Control
[29] = target: SNRK (Homo sapiens (Human), UniProt Q9NRH2); conditions: 10000 nM, read-out: Percent Control
[30] = target: TESK1 (Homo sapiens (Human), UniProt Q15569); conditions: TESK1, 10000 nM; read-out: Percent Control
[31] = target: TGFBR2 (Homo sapiens (Human), UniProt P37173); conditions: TGFBR2, 10000 nM; read-out: Percent Control
[32] = target: VRK2 (Homo sapiens (Human), UniProt Q86Y07); conditions: VRK2, 10000 nM; read-out: Percent Control
[33] = target: WNK3 (Homo sapiens (Human), UniProt Q9BYP7); conditions: WNK3, 10000 nM; read-out: Percent Control
[34] = target: YSK4 (Homo sapiens (Human), UniProt Q56UN5); conditions: YSK4, 10000 nM; read-out: Percent Control
Sequence of YSK4 (Q56UN5 whole entry): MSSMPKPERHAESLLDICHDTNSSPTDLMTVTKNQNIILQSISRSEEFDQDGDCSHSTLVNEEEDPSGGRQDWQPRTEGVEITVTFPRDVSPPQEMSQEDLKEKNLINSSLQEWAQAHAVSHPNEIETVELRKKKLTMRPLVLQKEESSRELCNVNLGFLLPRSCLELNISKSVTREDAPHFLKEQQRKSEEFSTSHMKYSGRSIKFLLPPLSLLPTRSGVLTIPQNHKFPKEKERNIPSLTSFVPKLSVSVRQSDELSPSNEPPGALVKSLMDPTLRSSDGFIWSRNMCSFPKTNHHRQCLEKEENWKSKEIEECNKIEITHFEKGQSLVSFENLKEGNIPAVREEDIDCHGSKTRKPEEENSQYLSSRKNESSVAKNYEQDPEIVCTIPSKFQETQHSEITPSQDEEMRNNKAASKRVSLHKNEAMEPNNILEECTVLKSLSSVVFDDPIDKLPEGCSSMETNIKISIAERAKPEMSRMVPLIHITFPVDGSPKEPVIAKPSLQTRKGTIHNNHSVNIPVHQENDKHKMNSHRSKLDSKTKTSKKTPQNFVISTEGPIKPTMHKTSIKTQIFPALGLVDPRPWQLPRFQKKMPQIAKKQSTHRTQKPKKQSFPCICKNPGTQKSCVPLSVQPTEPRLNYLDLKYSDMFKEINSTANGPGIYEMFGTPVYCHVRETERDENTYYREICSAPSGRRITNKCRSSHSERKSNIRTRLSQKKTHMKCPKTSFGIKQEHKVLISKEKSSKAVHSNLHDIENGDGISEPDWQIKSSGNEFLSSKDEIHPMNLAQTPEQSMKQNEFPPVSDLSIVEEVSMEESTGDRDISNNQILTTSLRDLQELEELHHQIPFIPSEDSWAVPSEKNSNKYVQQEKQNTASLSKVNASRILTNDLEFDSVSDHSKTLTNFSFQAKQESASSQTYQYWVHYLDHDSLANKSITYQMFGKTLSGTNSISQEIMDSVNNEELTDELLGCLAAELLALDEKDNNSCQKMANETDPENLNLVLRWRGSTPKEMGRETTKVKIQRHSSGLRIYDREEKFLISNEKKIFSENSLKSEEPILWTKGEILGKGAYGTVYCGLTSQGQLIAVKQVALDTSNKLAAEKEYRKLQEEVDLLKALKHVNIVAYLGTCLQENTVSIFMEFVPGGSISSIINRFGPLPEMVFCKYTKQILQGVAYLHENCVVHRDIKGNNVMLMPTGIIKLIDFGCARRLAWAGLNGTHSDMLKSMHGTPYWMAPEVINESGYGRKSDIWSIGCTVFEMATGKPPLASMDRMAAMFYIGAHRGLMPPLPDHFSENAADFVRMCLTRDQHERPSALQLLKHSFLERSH

Molecule `COc1cc(N2CCC(N3CCN(C)CC3)CC2)ccc1Nc1ncc2c(n1)N(C)c1sc(C)nc1C(=O)N2` [Compound 3, 6-((2-methoxy-4-(4-(4-methylpiperazin-1-yl)piperidin-1-yl)phenyl)amino)-2,4-dimethyl-4,9-dihydro-10H-pyrimido[5,4-b]thiazolo[5,4-e][1,4]diazepin-10-one] has a remaining binding at 10 µM [1] of 3.9%, a remaining binding at 10 µM [2] of 69% and a remaining binding at 10 µM [3] of 100%. It also gave a remaining binding at 10 µM [4] of 54%, a remaining binding at 10 µM [5] of 62% and a remaining binding at 10 µM [6] of 89%. The remaining binding at 10 µM [7] was 100%, the remaining binding at 10 µM [8] was 79% and the remaining binding at 10 µM [9] was 100%. The remaining binding at 10 µM [10] was 61%, the remaining binding at 10 µM [11] was 84% and the remaining binding at 10 µM [12] was 87%. It also gave a remaining binding at 10 µM [13] of 100%, a remaining binding at 10 µM [14] of 82% and a remaining binding at 10 µM [15] of 69%. It also gave a remaining binding at 10 µM [16] of 100%, a remaining binding at 10 µM [17] of 84% and a remaining binding at 10 µM [18] of 90%. It also gave a remaining binding at 10 µM [19] of 100%, a remaining binding at 10 µM [20] of 79% and a remaining binding at 10 µM [21] of 86%. It also gave a remaining binding at 10 µM [22] of 97%, a remaining binding at 10 µM [23] of 78% and a remaining binding at 10 µM [24] of 72%. The remaining binding at 10 µM [25] was 72%, the remaining binding at 10 µM [26] was 75% and the remaining binding at 10 µM [27] was 100%. For the same molecule, the remaining binding at 10 µM [28] was 100%, the remaining binding at 10 µM [29] was 94% and the remaining binding at 10 µM [30] was 81%. For the same molecule, the remaining binding at 10 µM [31] was 96%, the remaining binding at 10 µM [32] was 91% and the remaining binding at 10 µM [33] was 100%. For the same molecule, the remaining binding at 10 µM [34] was 100%.

In the case of `COc1cc(N2CCC(N3CCN(C)CC3)CC2)ccc1Nc1ncc2c(n1)N(C)c1sc(C)nc1C(=O)N2C` [Compound 5, 6-((2-methoxy-4-(4-(4-methylpiperazin-1-yl)piperidin-1-yl)phenyl)amino)-2,4,9-trimethyl-4,9-dihydro-10H-pyrimido[5,4-b]thiazolo[5,4-e][1,4]diazepin-10-one], the remaining binding at 10 µM [1] is reported as 54%, the remaining binding at 10 µM [2] is reported as 100% and the remaining binding at 10 µM [3] is reported as 100%. For the same molecule, the remaining binding at 10 µM [4] was 87%, the remaining binding at 10 µM [5] was 97% and the remaining binding at 10 µM [6] was 100%. For the same molecule, the remaining binding at 10 µM [7] was 100%, the remaining binding at 10 µM [8] was 100% and the remaining binding at 10 µM [9] was 80%. It also gave a remaining binding at 10 µM [10] of 100%, a remaining binding at 10 µM [11] of 100% and a remaining binding at 10 µM [12] of 100%. It also gave a remaining binding at 10 µM [13] of 99%, a remaining binding at 10 µM [14] of 100% and a remaining binding at 10 µM [15] of 95%. For the same molecule, the remaining binding at 10 µM [16] was 100%, the remaining binding at 10 µM [17] was 100% and the remaining binding at 10 µM [18] was 98%. The remaining binding at 10 µM [19] was 100%, the remaining binding at 10 µM [20] was 100% and the remaining binding at 10 µM [21] was 64%. For the same molecule, the remaining binding at 10 µM [22] was 100%, the remaining binding at 10 µM [23] was 90% and the remaining binding at 10 µM [24] was 89%. It also gave a remaining binding at 10 µM [25] of 100%, a remaining binding at 10 µM [26] of 34% and a remaining binding at 10 µM [27] of 100%. It also gave a remaining binding at 10 µM [28] of 100%, a remaining binding at 10 µM [29] of 100% and a remaining binding at 10 µM [30] of 100%. It also gave a remaining binding at 10 µM [31] of 98%, a remaining binding at 10 µM [32] of 97% and a remaining binding at 10 µM [33] of 97%. The remaining binding at 10 µM [34] was 93%.
